Values quoted from earlier work in PubChem BioAssay AID1259410 (Chemical Carcinogenesis Research Information System (CCRIS), 2018).

Test system: rodent tumor promotion studies, tumor incidence
Assay: CCRIS tumor promotion studies
Conditions: Route [Carcinogen]: DERMAL, Route [Promoter]: DERMAL, Species: MOUSE

Measured: outcome

CCCCCCCCCCCCCC(=O)O[C@@H]1[C@@H](C)[C@@]2(O)[C@@H](C=C(CO)C[C@]3(O)C(=O)C(C)=C[C@@H]23)[C@@H]2C(C)(C)[C@]12OC(C)=O
skin: papilloma: Carcinogen: 7,12-DIMETHYLBENZ[A]ANTHRACENE, 57-97-6, Doses [Carcinogen]: 200 NMOL IN 100 µL ACETONE ONCE, Doses [Promoter]: 0, 5 NMOL IN 100 µL ACETONE 2/WK FOR 20 WK BEGINNING 1 WK POST CARCINOGEN DOSE (STUDY DURATION: 21 WK), Strain/Sex: CD-1/FEMALE | Carcinogen: 7-METHYLBENZ[A]ANTHRACENE-3,4-DIOL, 175614-82-1, Doses [Carcinogen]: 200, 400 NMOL ONCE, Doses [Promoter]: 0, 3.4 NMOL 2/WK FOR 19 WK BEGINNING 2 WK POST CARCINOGEN DOSE (STUDY DURATION: 21 WK), Strain/Sex: SENCAR/FEMALE | Carcinogen: 9-FLUORO-7,12-DIMETHYLBENZ[A]ANTHRACENE-3,4-DIOL, 175614-88-7, Doses [Carcinogen]: 4, 10 NMOL ONCE, Doses [Promoter]: 0, 3.4 NMOL 2/WK FOR 19 WK BEGINNING 2 WK POST CARCINOGEN DOSE (STUDY DURATION: 21 WK), Strain/Sex: SENCAR/FEMALE | Carcinogen: 9-FLUORO-7-METHYLBENZ[A]ANTHRACENE-3,4-DIOL, 175614-83-2, Doses [Carcinogen]: 200, 400 NMOL ONCE, Doses [Promoter]: 0, 3.4 NMOL 2/WK FOR 19 WK BEGINNING 2 WK POST CARCINOGEN DOSE (STUDY DURATION: 21 WK), Strain/Sex: SENCAR/FEMALE | Carcinogen: 9-FLUORO-12-METHYLBENZ[A]ANTHRACENE-3,4-DIOL, 175614-86-5, Doses [Carcinogen]: 200, 400 NMOL ONCE, Doses [Promoter]: 0, 3.4 NMOL 2/WK FOR 19 WK BEGINNING 2 WK POST CARCINOGEN DOSE (STUDY DURATION: 21 WK), Strain/Sex: SENCAR/FEMALE | Carcinogen: 10-FLUORO-7,12-DIMETHYLBENZ[A]ANTHRACENE-3,4-DIOL, 175614-89-8, Doses [Carcinogen]: 4, 10 NMOL ONCE, Doses [Promoter]: 0, 3.4 NMOL 2/WK FOR 19 WK BEGINNING 2 WK POST CARCINOGEN DOSE (STUDY DURATION: 21 WK), Strain/Sex: SENCAR/FEMALE | Carcinogen: 10-FLUORO-7-METHYLBENZ[A]ANTHRACENE-3,4-DIOL, 175614-84-3, Doses [Carcinogen]: 200, 400 NMOL ONCE, Doses [Promoter]: 0, 3.4 NMOL 2/WK FOR 19 WK BEGINNING 2 WK POST CARCINOGEN DOSE (STUDY DURATION: 21 WK), Strain/Sex: SENCAR/FEMALE | Carcinogen: 10-FLUORO-12-METHYLBENZ[A]ANTHRACENE-3,4-DIOL, 175614-87-6, Doses [Carcinogen]: 200, 400 NMOL ONCE, Doses [Promoter]: 0, 3.4 NMOL 2/WK FOR 19 WK BEGINNING 2 WK POST CARCINOGEN DOSE (STUDY DURATION: 21 WK), Strain/Sex: SENCAR/FEMALE | Carcinogen: 12-METHYLBENZ[A]ANTHRACENE-3,4-DIOL, 175614-85-4, Doses [Carcinogen]: 200, 400 NMOL ONCE, Doses [Promoter]: 0, 3.4 NMOL 2/WK FOR 19 WK BEGINNING 2 WK POST CARCINOGEN DOSE (STUDY DURATION: 21 WK), Strain/Sex: SENCAR/FEMALE
skin: tumor: Carcinogen: 7-FLUOROBENZO[B]FLUORANTHENE, 89883-22-7, Doses [Carcinogen]: 10, 40, 120, 400 NMOL (TOTAL DOSE) APPLIED 1/2 D FOR 10 SUBDOSES, Doses [Carcinogen]: 10, 40, 120, 400 NMOL (TOTAL DOSE) APPLIED 1/2 D FOR 10 SUBDOSES, Doses [Promoter]: 0, 2.5 UG IN 100 µL ACETONE 3/WK FOR 20 WK BEGINNING 10 D POST CARCINOGEN TREATMENT (STUDY DURATION: 22 WK), Strain/Sex: CRL:CD-1/FEMALE | Carcinogen: 8-METHYLBENZO[K]FLUORANTHENE, 95741-54-1, Doses [Carcinogen]: 4 UMOL (TOTAL DOSE) ADMINISTERED IN 10 SUBDOSES 1/2 D, Doses [Promoter]: 2.5 UG IN 0.1 ML ACETONE 3/WK FOR 30 WK BEGINNING 10 D POST CARCINOGEN TREATMENT (STUDY DURATION: 33 WK), Strain/Sex: CRL:CD-1/FEMALE | Carcinogen: 9-METHYLBENZO[K]FLUORANTHENE, 95741-55-2, Doses [Carcinogen]: 4 UMOL (TOTAL DOSE) ADMINISTERED IN 10 SUBDOSES 1/2 D, Doses [Promoter]: 2.5 UG IN 0.1 ML ACETONE 3/WK FOR 30 WK BEGINNING 10 D POST CARCINOGEN TREATMENT (STUDY DURATION: 33 WK), Strain/Sex: CRL:CD-1/FEMALE | Carcinogen: 10-FLUOROBENZO[J]FLUORANTHENE, 129286-37-9, Doses [Carcinogen]: 1, 2 UMOL (TOTAL DOSE) ADMINISTERED IN SUBDOSES 1/2 D, Doses [Promoter]: 2.5 UG IN 100 µL ACETONE 3/WK FOR 20 WK BEGINNING 10 D POST LAST CARCINOGEN DOSE (STUDY DURATION: 27 WK), Strain/Sex: CD-1/FEMALE
